Results from patent publication US9108930B2, “N1- and N2-carbamoyl-1,2,3-triazole serine hydrolase inhibitors and methods” (The Scripps Research Institute, priority 2011, dated 2015).

Experiments:
[1] = test system: peritoneal macrophages of Pla2g4a-/- mice; test: LPS-stimulated TNF-alpha release, macrophages from treated Pla2g4a-/- mice; type: in vivo, mouse; details: 5 mg/kg, 4 hours, i.p.
Description: Next, the cytokine profiles from a Pla2g4a^+/+ background were compared with the profiles from Pla2g4a^−/− mice treated with KT109 or KT195 (5 mg/kg, 4 hours, i.p.). […] However, no significant differences in LPS-stimulated TNF-alpha levels were observed from Pla2g4a^+/+ versus […].

[2] = test system: peritoneal macrophages of Pla2g4a-/- mice; test: Metabolomics of macrophages from treated Pla2g4a-/- mice; type: in vivo, mouse; details: 5 mg/kg, 4 hours, i.p.
Description: Pla2g4a^−/− mice were treated with KT109 or KT195 (5 mg/kg, 4 hours, i.p.), thioglycolate-elicited macrophages were harvested, and then the macrophages were subjected to metabolomics analysis. The cellular levels of PGE2 and PGD2 were measured.
(§1) Metabolites were quantified by either selected reaction monitoring (SRM) of each metabolite using an Agilent G6410B Triple-Quad instrument or untargeted metabolomic analysis (substrate assays) using an Agilent 1100 series LC-MSD SL instrument. […] For analysis of diacylglycerols (DAGs) a Luna C5 column (50 mm×4.60 mm with 5 μm diameter particles) from Phenomenex was used. Mobile phase A was made of 95:5 v/v H2O:MeOH, and mobile phase B was composed of 60:35:5 v/v/v i-PrOH:MeOH:H2O. Ammonium hydroxide (0.1%) and formic acid (0.1%) was included to assist in ion formation in negative and positive ionization modes, respectively. For analysis of DAGs, 5 mM ammonium formate was also used in addition to 0.1% formic acid to assist in positive ionization and NH4+ adduct formation. For metabolite measurements, cells were resuspended in 1 mL of a 1% NaCl solution and added to 3 mL of a 2:1 v/v CHCl3:MeOH doped with 1 nmol of the following internal standards: d5-2-arachidonoylglycerol (2-AG), d8-arachidonic acid (AA), and d8-1-stearoyl-2-arachidonoylglycerol (SAG). The mixture was vortexed and then centrifuged (1,400×g, 3 min). The organic layer was removed, CHCl3 was added until the final volume was again 4 ml, and the extraction was repeated. The combined organic extracts were dried under a stream of N2 and resolubilized in 2:1 v/v CHCl3:MeOH (120 μl). 30 μL of resolubilized lipids were injected for positive mode (MAGs and DAGs) and negative mode (free fatty acids and eicosanoids) measurements.
The following parameters (MS) were used to measure the indicated metabolites by SRM (precursor ion, product ion, collision energy in V, polarity): C20:4 MAG or 2-AG (379, 287, 8, positive), d5-2-AG (384, 287, 5, positive), C18:0/C20:4 DAG or SAG (662, 341, 15, positive), d8-SAG (671, 671, 0, positive), C18:1/C20:4 DAG (660, 341, 15, positive), C16:0/C20:4 DAG (634, 341, 15, positive), C14:0/C20:4 DAG (606, 341, 15, positive), arachidonic acid or AA (303, 303, 0, negative), d8-AA (311, 267, 5, negative), PGE2 (351, 271, 10, negative), and PGD2 (351, 271, 10, negative). MS analysis was performed with an electrospray ionization source with the following parameters: drying gas temperature=350° C., drying gas flow rate=11 L/min, and the nebulizer pressure=35 psi. Prostaglandin SRM parameters were based on previously reported methods and transitions. Metabolites targeted by SRM were quantified by measuring the area under the peak in comparison with the internal standards. […]

DAGLB [3] = molecular target: T1, DAGLB (Mus musculus, UniProt Q91WC9); test: In vivo DAGLB inactivation in peritoneal macrophages, gel-based competitive ABPP using HT01; design: from tissue; host or cells: thioglycolate-elicited peritoneal macrophages of treated mice; details: for dose (as low as) giving complete inactivation of DAGLB in peritoneal macrophages: about 4 hours, doses about 10 to about 0.1 mg/kg
T1 sequence (Q91WC9 1-669): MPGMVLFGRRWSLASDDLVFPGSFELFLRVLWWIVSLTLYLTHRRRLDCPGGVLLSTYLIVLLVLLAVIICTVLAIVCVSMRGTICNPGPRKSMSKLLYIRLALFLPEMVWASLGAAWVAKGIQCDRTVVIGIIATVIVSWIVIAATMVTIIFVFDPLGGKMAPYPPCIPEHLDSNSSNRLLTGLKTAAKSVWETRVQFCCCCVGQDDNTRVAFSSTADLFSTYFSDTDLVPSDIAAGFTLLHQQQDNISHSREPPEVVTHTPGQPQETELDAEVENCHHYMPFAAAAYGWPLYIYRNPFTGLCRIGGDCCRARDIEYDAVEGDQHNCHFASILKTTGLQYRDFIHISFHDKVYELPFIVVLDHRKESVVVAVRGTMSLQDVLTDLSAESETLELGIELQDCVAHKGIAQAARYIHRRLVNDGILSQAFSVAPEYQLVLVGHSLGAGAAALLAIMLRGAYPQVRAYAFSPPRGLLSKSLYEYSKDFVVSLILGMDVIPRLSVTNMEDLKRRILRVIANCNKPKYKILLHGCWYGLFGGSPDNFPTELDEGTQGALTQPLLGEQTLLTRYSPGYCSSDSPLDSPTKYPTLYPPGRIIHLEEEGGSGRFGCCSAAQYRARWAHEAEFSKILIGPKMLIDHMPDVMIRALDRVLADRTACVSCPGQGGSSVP

DAGLB [4] = molecular target: T1, DAGLB; test: ABPP-MudPIT of peritoneal macrophages from treated mice; details: in vivo
peritoneal macrophages = test: Metabolomics of thioglycolate-elicited peritoneal macrophages from treated mice; type: in vivo, mouse; details: 5 mg/kg, 4 hours, i.p.
Description: Mice were treated with KT109, KT172 or KT195 (5 mg/kg, 4 hours, i.p.) to evaluate whether blockade of DAGLB in peritoneal macrophages would result in metabolic effects similar to those observed in Neuro2A cells. Thioglycolate-elicited peritoneal macrophages were harvested, and the cells were subjected to metabolomics studies. […] All the metabolic effects observed in pharmacological studies were recapitulated using Daglb^−/− mice, providing genetic evidence that the changes were indeed DAGLB-mediated.
as §1
The following parameters (MS) were used to measure the indicated metabolites by SRM (precursor ion, product ion, collision energy in V, polarity): C20:4 MAG or 2-AG (379, 287, 8, positive), d5-2-AG (384, 287, 5, positive), C18:0/C20:4 DAG or SAG (662, 341, 15, positive), d8-SAG (671, 671, 0, positive), C18:1/C20:4 DAG (660, 341, 15, positive), C16:0/C20:4 DAG (634, 341, 15, positive), C14:0/C20:4 DAG (606, 341, 15, positive), arachidonic acid or AA (303, 303, 0, negative), d8-AA (311, 267, 5, negative), PGE2 (351, 271, 10, negative), and PGD2 (351, 271, 10, negative). MS analysis was performed with an electrospray ionization source with the following parameters: drying gas temperature=350° C., drying gas flow rate=11 L/min, and the nebulizer pressure=35 psi. Prostaglandin SRM parameters were based on previously reported methods and transitions. Metabolites targeted by SRM were quantified by measuring the area under the peak in comparison with the internal standards. For metabolites where isotopic internal standards were not used, external standard curves with the internal standard versus metabolite standard were generated. In DAGL substrate assays, formation of the hydrolysis product, 2-AG was followed by measuring the area under the peak for 2-AG in comparison to the 1-monopentadecanoin standard ion.

SMILES | increase of TNF-alpha levels upon LPS stimulation [1] [fold] | PGD2 level [2] | change in PGE2 [2] | time to complete inhibition of DAGLB (DAGLB [3]; 5 mg/kg, i.p.) | dose (as low as) giving complete inactivation of DAGLB in peritoneal macrophages (DAGLB [3]; i.p.) [mg/kg] | inhibition at 5 mg/kg (DAGLB [3]; mouse, ip, read-out: persistent inhibition of DAGLB after 16 hours) [%] | DAGLB inhibition by spectral counting (DAGLB [4]) | change in 2-AG (peritoneal macrophages) | change in SAG (peritoneal macrophages) | change in cellular AA, PGE2 and PGD2 (peritoneal macrophages) | effect on TNF-alpha levels upon LPS stimulation [1] | duration / time-course of DAGLB inhibition (DAGLB [3]; 5 mg/kg, i.p., about 1 to 16 hours)
O=C(N1CCCCC1Cc1ccccc1)n1cc(-c2ccc(-c3ccccc3)cc2)nn1 (stereo not drawn) [KT109] | 2 | remained undetectable | significant decrease in PGE2 | within the first hour | 0.5 | ~90 | confirmed inhibition of DAGLB | Dramatic decreases in 2-AG | significant increases in SAG | significant decreases in cellular AA levels and a corresponding reduction in PGE2 and PGD2 |  | 
COc1ccc(-c2ccc(-c3cn(C(=O)N4CCCCC4c4ccccc4)nn3)cc2)cc1 (stereo not drawn) [KT195] |  | remained undetectable | not observed |  | > 10 |  | no activity against DAGLB | no observable changes |  | None of these effects were observed | no observable effects | no evidence of DAGLB inhibition during the entire time-course of treatment
